Assay results from article PMC12845078 (Pharmaceuticals, 2025).
Like-named read-outs stand apart in the source and are kept apart here.

What was measured:
[1] = Pharmacokinetics of MT, 6-HMT and CBD in beagles after oral administration; conditions: beagle
Method: Twelve male healthy adult beagles (weighing 10 ± 2 kg) were randomly divided into two groups. […] The drugs were dissolved in a physiological saline solution containing 5% castor oil, with an administration volume of 2 mL/kg. Blood samples were collected at the time points of pre-administration and 0.083, 0.25, 0.5, 0.75, 1, 1.5, 2, 4, 6, 8, and 12 h post-administration.
(§1) The column temperature was set at 40 °C.

[2] = Pharmacokinetics of MT, 6-HMT and CBD in SD rats (i.v. and oral); conditions: rat; for half-life / AUC(0-t) / AUC(0-inf) / Cmax / MRT last / Tmax: Sprague-Dawley; for half-life: in vivo, t1/2, rats; for AUC(0-t) / AUC(0-inf) / Cmax / MRT last / Tmax: plasma; for MRT last: MRT(0–t)
Method: The drugs were dissolved in the same manner as described previously, with an administration volume of 5 mL/kg for all groups. Blood samples were collected at the time points of pre-administration and 0.033 (only for the intravenous administration group), 0.083, 0.25, 0.5, 0.75, 1, 1.5, 2, 4, 6, 8, and 12 h post-administration.
as §1

PEPT1 = target: T1, PEPT1 (Homo sapiens, UniProt P46059); assay: Uptake and uptake inhibition in MDCK/hPEPT1 cell model; format: cell-based; conditions: MDCK
T1 construct: host or cells: MDCK
T1 sequence (P46059 1-708): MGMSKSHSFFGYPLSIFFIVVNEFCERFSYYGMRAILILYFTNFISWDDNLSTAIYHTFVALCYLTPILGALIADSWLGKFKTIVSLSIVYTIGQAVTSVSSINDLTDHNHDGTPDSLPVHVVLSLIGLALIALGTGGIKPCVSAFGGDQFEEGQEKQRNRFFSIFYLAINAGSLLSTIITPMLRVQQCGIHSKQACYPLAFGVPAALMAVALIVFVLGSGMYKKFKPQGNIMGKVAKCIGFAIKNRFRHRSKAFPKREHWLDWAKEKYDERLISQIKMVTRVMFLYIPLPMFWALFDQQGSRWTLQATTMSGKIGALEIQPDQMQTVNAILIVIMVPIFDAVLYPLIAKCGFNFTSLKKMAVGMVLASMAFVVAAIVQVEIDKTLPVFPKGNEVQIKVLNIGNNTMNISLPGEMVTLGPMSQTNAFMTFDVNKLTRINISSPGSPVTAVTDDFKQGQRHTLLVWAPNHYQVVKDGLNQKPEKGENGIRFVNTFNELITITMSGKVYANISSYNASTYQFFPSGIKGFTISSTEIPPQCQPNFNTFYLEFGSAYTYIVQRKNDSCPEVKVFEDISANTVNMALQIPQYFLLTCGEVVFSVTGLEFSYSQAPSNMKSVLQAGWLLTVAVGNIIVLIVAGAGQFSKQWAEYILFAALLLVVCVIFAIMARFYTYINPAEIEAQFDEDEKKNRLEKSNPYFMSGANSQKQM
Method: MDCK-PEPT1 cells were seeded into 24-well plates at a density of approximately 5 × 10^5 cells per well. When the cell confluency reached 60–70%, the culture medium was aspirated, and the cells were rinsed twice with HBSS pre-warmed to 37 °C. […] After incubation at 37 °C for 10 min, the buffer was aspirated, and ice-cold HBSS was immediately added to terminate the reaction, followed by rinsing three times. After drying the residual liquid, 200 μL of pure water were added to each well, and the cells were lysed by repeated freezing–thawing in liquid nitrogen three times. The cell lysates were collected, and the protein content was determined by the BCA method.
Cell uptake assessment: The concentration of the analyte in cells was corrected using the protein concentration of the cell lysate in each well.(4) Conclysate=Concdrug/ConcProtein
The uptake rate (U, pmol/mg/min) of the compound was calculated following Formula (5).(5) U=Clysate/P×t where Clysate is the amount of drug in the cell lysate (ng); P is cellular protein content (mg); t is incubation time (min).
The uptake ratio of the compound was calculated following Formula (6)(6) UR=U/ UMOCK where UMOCK is the uptake rate in MOCK-MDCK cells (pmol/mg/min).
The inhibition ratio was calculated following Formula (7)(7) IR=(1−Uwith inhibitor−Umock with inhibitor/Uwithout inhibitor−Umock without inhibitor)×100%

[3] = Plasma protein binding (rapid equilibrium dialysis), rat; format: in vitro ADME
Method: (§3) After incubation for 20 min, a portion of the whole blood was centrifuged at 2500× g for 10 min at 4 °C to separate plasma; another portion of the whole blood was subjected to three cycles of freeze–thawing and ultrasonicated for 10 min to disrupt cells. Equal volumes of plasma and whole blood samples were added to the whole blood and plasma specimens, respectively, followed by protein precipitation with acetonitrile containing an internal standard (IS). […] The RED inserts were placed in the matching incubation plate: 200 µL of drug-containing matrix were added to the sample chamber, and 400 µL of PBS buffer (pH: 7.4) were added to the buffer chamber. After incubation in a constant-temperature shaking incubator for 6 h (37 °C), samples from the sample chamber and buffer chamber were diluted 1:1 with PBS or matrix, respectively, and proteins were precipitated with acetonitrile containing IS.

[4] = Plasma protein binding (rapid equilibrium dialysis), mouse; format: in vitro ADME; conditions: pH 7.4
Method: as §3

[5] = Plasma protein binding (rapid equilibrium dialysis), human; format: in vitro ADME; conditions: pH 7.4, human
Method: as §3

[6] = Liver microsome protein binding, rat; format: in vitro ADME; conditions: liver microsomes, pH 7.4
[7] = Liver microsome protein binding, dog; format: in vitro ADME; conditions: beagle, liver microsomes, pH 7.4
Method: as §3

[8] = Liver microsome protein binding, human; format: in vitro ADME; conditions: liver microsomes, pH 7.4
Method: as §3

[9] = Brain tissue protein binding, rat; format: in vitro ADME; conditions: pH 7.4
Method: as §3

[10] = tested on: CYP1A2-mediated metabolism of MT; assay: Static DDI model prediction of CBD's impact on MT exposure, rat; conditions: CBD dose 5 mg
Excerpt: (§2) (AUC when co-administered with the inhibitor) to AUC[contr] (AUC without the inhibitor).

[11] = tested on: CYP1A2-mediated metabolism of MT; assay: Static DDI model prediction of CBD's impact on MT exposure, beagle; design: species or system beagle dog; conditions: CBD dose 30 mg
Excerpt: as §2

[12] = Plasma protein binding (rapid equilibrium dialysis), dog; conditions: beagle
Method: as §3

[13] = Pharmacokinetics of MT and CBD in rats after pre-administration of ABT; conditions: p.o. MT + CBD (5 + 20) mg/kg
Method: Twelve SD rats were randomly divided into two groups. Both groups were first given an intragastric administration of 1-aminobenzotriazole (ABT) at a dose of 200 mg/kg. […] The administration volume for all groups was 5 mL/kg. […] Approximately 50 μL of venous blood were collected into heparin sodium anticoagulant tubes and placed on ice. The sample processing and storage methods were the same as described previously.
Subsequently, the resultant mixture was vortexed for 1 minute and centrifuged at 4 °C for 10 min at 18,800× g. […] The lowest limit of quantification (LLOQ) was established at 2 ng/mL.
Kromasil 100-5-C8 (2.1 × 50 mm) was selected for the separation of samples. The mobile phase consisted of solvent A (water with 0.1% formic acid and 5 mM ammonium acetate) and solvent B (methanol with 0.1% formic acid). […] The column temperature was set at 40 °C. The two eluents were 0.1% formic acid and 5 mM ammonium acetate in water (A) and 0.1% formic acid in methanol (B). […] The main mass spectrometry detection parameters were: dry gas 10 L/min, heated gas 10 L/min, collision gas 270 kPa, ion source temperature 300 °C, desolvation temperature 250 °C, and heating module temperature 400 °C.
Pharmacokinetic parameters: GraphPad Prism 10.1 software was utilized to draw the curves. Noncompartmental analysis was selected to calculate the major PK parameters, including clearance (CL), volume (V), half-life (t1/2), peak concentration (Cmax), and area under the curve (AUC), using WinNonlin 8.1.

[14] = po, 20 mg/kg, rats, p.o., MT + CBD (20 + 20) mg/kg
[15] = po, 20 mg/kg, rats, p.o., Vehicle + CBD 20 mg/kg
[16] = male, po, 20 mg/kg, rats, p.o., MT + CBD (5 + 20) mg/kg

With `C=C(C)[C@@H]1CCC(C)=C[C@H]1c1c(O)cc(CCCCC)cc1O` [CBD, Cannabidiol] the “Ka (oral absorption rate)” value ([1]; calculated as 0.693/(tmax/5)) was 3.77, the Cmax ([1]; male, dog, plasma, oral) was 1310 nM and the half-life ([2]; po, 20 mg/kg, p.o., MT + CBD (20 + 20) mg/kg) was 2.67 h. It also gave a half-life ([2]; po, 20 mg/kg, p.o., Vehicle + CBD 20 mg/kg) of 3.55 h, an AUC(0-t) [2, 14] of 1390 ng·h/mL and an AUC(0-t) [2, 15] of 1570 ng·h/mL. The AUC(0-inf) [2, 14] was 1410 ng·h/mL, the AUC(0-inf) [2, 15] was 1590 ng·h/mL and the Cmax [2, 14] was 519 ng/mL. For the same compound, the Cmax [2, 15] was 704 ng/mL, the MRT last [2, 14] was 2.71 h and the MRT last [2, 15] was 3.11 h. For the same compound, the Tmax [2, 14] was 1.21 h, the Tmax [2, 15] was 0.92 h and the half-life ([2]; male, po, 20 mg/kg, p.o., MT + CBD (5 + 20) mg/kg) was 4.14 h. The Cmax ([2]; male, oral, parameter of CBD for static DDI model) was 1620 nM, the AUC(0-t) [2, 16] was 1590 ng·h/mL and the AUC(0-inf) [2, 16] was 1610 ng·h/mL. For the same compound, the Cmax [2, 16] was 510 ng/mL, the MRT last [2, 16] was 3.85 h and the Tmax [2, 16] was 1.5 h. The “Ka (oral absorption rate)” value ([2]; calculated as 0.693/(tmax/5)) was 2.31, the inhibition at 500 µM (PEPT1; 500 μM CBD, 100 μM MT, 4 °C, read-out: uptake inhibition rate of MT) was 2.7% and the inhibition at 500 µM (PEPT1; 500 μM CBD, 100 μM MT, 37 °C, read-out: uptake inhibition rate of MT) was 79.6%. The inhibition at 500 µM (PEPT1; pH 6.3, 500 μM CBD, 100 μM Gly, pH 6.3, 37 °C, read-out: inhibition rate on the uptake of Gly via PEPT1) was 46.7%, the inhibition at 500 µM (PEPT1; pH 6.3, 500 μM CBD, 100 μM UBEN, pH 6.3, 37 °C, read-out: inhibition rate on the uptake of UBEN via PEPT1) was 55.8% and the “fu, p (free fraction in plasma)” value [3] was 0.25%. It also gave a fraction unbound at 6 h ([3]; plasma, pH 7.4) of 0.0025, a fraction unbound at 6 h [4] of 0.0029 and a fraction unbound at 6 h ([5]; read-out: Plasma Protein Binding (converted)) of 0.001. For the same compound, the fraction unbound at 6 h ([5]; read-out: fu, p (free fraction in plasma)) was 0.0001, the fraction unbound at 6 h [6] was 0.0055 and the fraction unbound at 6 h [7] was 0.0018. The fraction unbound at 6 h [8] was 0.0073, the fraction unbound at 6 h [9] was 0.0006 and the “[I]h (estimated free concentration in liver)” value [10] was 0.74 nM. The “[I]h (estimated free concentration in liver)” value [11] was 1.37 nM, the “fu, p (free fraction in plasma)” value [12] was 0.33% and the fraction unbound at 6 h ([12]; dog, plasma, pH 7.4) was 0.0033. For the same compound, the “AUC(0–t) of CBD in ABT-model rats relative to control group” value [13] was “approximately 1.68 fold”.
